US8648076B2, “Cysteine protease inhibitors and their therapeutic applications” (Hybrigenics SA, priority 2005, dated 2014)
Where two headings read alike, the source gives them in different places.

What was measured:
Format in all cases: biochemical
Caspase 3 = molecular target: T1, Caspase 3 (Homo sapiens, UniProt P42574); assay: Caspase 3 activity assay; conditions: 500 nM Ac-DEVD-AMC, 3.2 nM enzyme, 30 min pre-incubation at 25° C., 60 min at 37° C.; sigmoidal fit; AF: Autofluorescent; read-out: Casp3 (inhibition of cysteine protease activity)
T1 sequence (P42574 29-175 limits assumed): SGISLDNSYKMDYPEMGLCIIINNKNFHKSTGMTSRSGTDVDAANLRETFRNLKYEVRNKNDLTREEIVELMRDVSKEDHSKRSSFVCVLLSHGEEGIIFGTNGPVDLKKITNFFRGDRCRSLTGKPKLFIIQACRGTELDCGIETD
T1 sequence (P42574 176-277 limits assumed): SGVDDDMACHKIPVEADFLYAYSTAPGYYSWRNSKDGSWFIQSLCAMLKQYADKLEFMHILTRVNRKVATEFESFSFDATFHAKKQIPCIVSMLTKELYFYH
Procedure: Compounds stocks (100 mM) were stored at −20° C. in DMSO. […] Reactions were performed as duplicates in Black LJL 96 well plates (HE microplates; Molecular Devices; 20 μl final reaction volume). The substrate concentration for caspase 3 specificity assay was 500 nM (Ac-DEVD-AMC; Promega). […] The concentrations were determined in order to perform specificity assays under initial velocities at fixed substrate concentration. Compounds were pre-incubated with enzymes for 30 minutes at 25° C. Reactions were initiated by addition of substrate to the plates containing the enzymes (+/−compounds) diluted in assay buffer. Reactions were incubated for 60 minutes at 37° C. Reactions were stopped by adding acetic acid (100 mM final). Readings were performed on a Pherastar Fluorescent Reader (BMG). δ Emission 380 nm; δ Excitation=460 nm. Data (mean values+/− standard deviation) were analyzed as % of control (no compound) and plotted as percentage versus the Log of the compound concentration using GraphPad (Prism). Data were fitted to a sigmoidal model (variable slope).

Uch-L3 = molecular target: T2, Uch-L3 (Homo sapiens, UniProt P15374); assay: UCH-L3 activity assay; conditions: 400 nM Ub-AMC, 13 pM enzyme, 30 min pre-incubation at 25° C., 60 min at 37° C.; sigmoidal fit; AF: Autofluorescent; read-out: Uch-L3 (inhibition of cysteine protease activity)
T2 sequence (P15374 1-230): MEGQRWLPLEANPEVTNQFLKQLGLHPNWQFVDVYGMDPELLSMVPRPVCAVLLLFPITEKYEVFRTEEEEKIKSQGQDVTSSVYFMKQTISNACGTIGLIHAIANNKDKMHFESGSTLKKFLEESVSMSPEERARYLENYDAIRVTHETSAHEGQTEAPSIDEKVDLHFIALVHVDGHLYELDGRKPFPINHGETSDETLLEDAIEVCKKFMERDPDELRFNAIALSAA
Procedure, shortened: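 Compounds were pre-incubated with 13 pM Uch-L3 for 30 min at 25° C in pH 7.6 buffer with 0.05 mg/ml BSA. Reactions ran 60 min at 37° C with 400 nM Ub-AMC, were stopped with 100 mM acetic acid, and AMC fluorescence was read. Duplicates were expressed as % of no-compound control and fitted to a variable-slope sigmoid.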

Cathepsin B = Cathepsin B (Homo sapiens, UniProt P07858); assay: Cathepsin B activity assay; conditions: 36 μM z-RR-AMC, 3.6 nM enzyme, 30 min pre-incubation at 25° C., 60 min at 37° C.; sigmoidal fit; AF: Autofluorescent; read-out: cathepB (inhibition of cysteine protease activity)
Procedure: Cathepsin B was diluted in Cathepsin B buffer (20 mM Tris HCl pH 6.8; 1 mM EDTA; 1 mM DTT). Compounds stocks (100 mM) were stored at −20° C. in DMSO. […] Reactions were performed as duplicates in Black LJL 96 well plates (HE microplates; Molecular Devices; 20 μl final reaction volume). The substrate concentration for cathepsin B specificity assay was 36 μM (z-RR-AMC; Calbiochem). The concentration of the enzyme (Cathepsin B) in specificity assays was 3.6 nM. The concentrations were determined in order to perform specificity assays under initial velocities at fixed substrate concentration. Compounds were pre-incubated with enzymes for 30 minutes at 25° C. Reactions were initiated by addition of substrate to the plates containing the enzymes (+/− compounds) diluted in assay buffer. Reactions were incubated for 60 minutes at 37° C. Reactions were stopped by adding acetic acid (100 mM final). Readings were performed on a Pherastar Fluorescent Reader (BMG). δ Emission 380 nm; 6 Excitation=460 nm. Data (mean values+/− standard deviation) were analyzed as % of control (no compound) and plotted as percentage versus the Log of the compound concentration using GraphPad (Prism). Data were fitted to a sigmoidal model (variable slope).

USP7 = molecular target: T3, USP7 (Homo sapiens, UniProt Q93009); assay: USP7 activity assay
T3 construct: His tag (from pFastBac-HT vector) (N); made in house; host or cells: insect cells (Sf9 or High Five), baculovirus

[1] = 400 nM Ub-AMC, 152 pM enzyme, 30 min pre-incubation at 25° C., 60 min at 37° C., sigmoidal fit, read-out: USP 7 (inhibition of cysteine protease activity)

T3 sequence (Q93009 whole entry): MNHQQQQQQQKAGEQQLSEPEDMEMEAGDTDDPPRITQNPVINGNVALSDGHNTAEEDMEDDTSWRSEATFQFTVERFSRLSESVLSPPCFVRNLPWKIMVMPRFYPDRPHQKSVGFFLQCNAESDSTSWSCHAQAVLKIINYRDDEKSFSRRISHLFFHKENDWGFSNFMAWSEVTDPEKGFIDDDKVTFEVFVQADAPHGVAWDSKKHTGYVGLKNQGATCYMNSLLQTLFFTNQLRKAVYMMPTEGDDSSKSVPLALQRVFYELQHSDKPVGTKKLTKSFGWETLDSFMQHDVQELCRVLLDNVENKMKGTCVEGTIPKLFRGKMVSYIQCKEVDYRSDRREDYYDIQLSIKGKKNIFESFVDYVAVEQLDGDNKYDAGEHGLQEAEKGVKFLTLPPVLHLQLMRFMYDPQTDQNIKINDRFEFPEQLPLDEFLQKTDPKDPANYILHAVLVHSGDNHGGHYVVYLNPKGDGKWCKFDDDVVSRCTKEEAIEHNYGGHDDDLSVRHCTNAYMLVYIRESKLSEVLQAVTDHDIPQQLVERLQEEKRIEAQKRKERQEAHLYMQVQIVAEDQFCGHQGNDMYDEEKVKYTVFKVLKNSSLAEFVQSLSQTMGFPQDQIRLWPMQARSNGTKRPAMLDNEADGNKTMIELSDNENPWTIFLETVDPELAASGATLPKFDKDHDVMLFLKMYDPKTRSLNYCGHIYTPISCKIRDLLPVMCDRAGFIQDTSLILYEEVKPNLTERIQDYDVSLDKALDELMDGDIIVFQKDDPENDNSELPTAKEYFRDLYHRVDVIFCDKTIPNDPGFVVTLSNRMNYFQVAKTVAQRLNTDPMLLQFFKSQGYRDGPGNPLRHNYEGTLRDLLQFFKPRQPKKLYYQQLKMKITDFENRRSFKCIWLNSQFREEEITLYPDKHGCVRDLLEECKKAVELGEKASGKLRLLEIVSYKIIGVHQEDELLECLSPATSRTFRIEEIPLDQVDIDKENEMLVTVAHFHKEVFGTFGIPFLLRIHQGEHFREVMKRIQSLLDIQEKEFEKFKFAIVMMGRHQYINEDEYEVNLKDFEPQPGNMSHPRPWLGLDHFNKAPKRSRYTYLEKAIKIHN

| SMILES | IC50 (Caspase 3) | IC50 (Uch-L3) | IC50 (Cathepsin B) | IC50 (USP7; [1]) | IC50 (USP7) |
| --- | --- | --- | --- | --- | --- |
| N#CNc1nc2c(nc1C#N)C(=O)c1ccccc1-2 [Example 21, 2-cyano-9-oxo-9H-indeno[1,2-b]pyrazin-3-yl-cyanamide] | > 100 µM | > 100 µM | > 100 µM | > 100 µM | – |
| COCCON=C1c2ccccc2-c2nc(C(N)=O)c(C#N)nc21 [Example 34c, 2-Cyano-9-(2-methoxy-ethoxyimino)-9H-indeno[1,2-b]pyrazine-3-carboxylic acid amide] | 1.22 µM | 0.109 µM | > 100 µM | – | 2.88 µM |
| N#Cc1nc2c(nc1C#N)-c1ccccc1C2=NO [Example 12, 9-[hydroxyimino]-9H-indeno[1,2-b]pyrazine-2,3-dicarbonitrile] | 5.6 µM | 1.3 µM | 21 µM | > 100 µM | – |
| N#Cc1nc2c(nc1C#N)-c1ccc(Cl)cc1C2=NNC(N)=O [Example 43, 9-[(aminocarbonyl)hydrazono]-7-chloro-9H-indeno[1,2-b]pyrazine-2,3-dicarbonitrile] | 64.9 µM | 13.5 µM | > 100 µM | – | > 100 µM |
| COc1cc2c(cc1OC)-c1nc(C#N)c(C#N)nc1C2=O [Example 17b, 6,7-Dimethoxy-9-oxo-9H-indeno[1,2-b]pyrazine-2,3-dicarbonitrile] | 51 µM | 5.4 µM | > 100 µM | 10.2 µM | – |
